According to patent US20150306081A1, “Chemotherapy for Drug-Resistant Cancer Cells” (THE UNIVERSITY OF SYDNEY, priority 2012, published 2015):
Where two headings read alike, the source gives them in different places.

Key:
[1] = test system: KBV1 cells; experiment: Lysosomal integrity, acridine orange flow cytometry, KBV1 cells; type: cell-based, Human; conditions: 30 min incubation
Description: Lysotracker® red (Life Technologies) and acridine orange (Sigma-Aldrich) are dyes showing high specificity for lysosomes and were used to determine lysosomal membrane permeability (LMP). The Lysotracker® red was visually assessed by fluorescence microscopy utilizing a Zeiss Axio Observer.Z1 Fluorescence Microscope equipped with an AxioCam camera (Zeiss, Oberkochen, Germany) and acridine orange was quantified by flow cytometry (see below).
Briefly, cells were incubated with Lysotracker® red (50 nM) for 15 min/37° C. or acridine orange (20 nM) for 15 min/37° C., washed on ice 3 times with ice-cold PBS and then incubated with Cu[Dp44mT] (25 μM) for 30 min/37° C. or Dp44mT alone (25 μM) for 30 min or 24 h/37° C.
(§1) The dyes, Rh123 and acridine orange were detected with the FACS Canto flow cytometer (BD Biosciences) and 10,000 events were acquired for every sample. Data analysis was performed using FlowJo software, version 7.5.5 (Tree Star Inc., Ashland, OR).

[2] = biological target: T1, Pgp (Homo sapiens, UniProt P08183); experiment: Pgp-ATPase activity assay (Pgp-Glo)
T1 sequence (P08183 whole entry): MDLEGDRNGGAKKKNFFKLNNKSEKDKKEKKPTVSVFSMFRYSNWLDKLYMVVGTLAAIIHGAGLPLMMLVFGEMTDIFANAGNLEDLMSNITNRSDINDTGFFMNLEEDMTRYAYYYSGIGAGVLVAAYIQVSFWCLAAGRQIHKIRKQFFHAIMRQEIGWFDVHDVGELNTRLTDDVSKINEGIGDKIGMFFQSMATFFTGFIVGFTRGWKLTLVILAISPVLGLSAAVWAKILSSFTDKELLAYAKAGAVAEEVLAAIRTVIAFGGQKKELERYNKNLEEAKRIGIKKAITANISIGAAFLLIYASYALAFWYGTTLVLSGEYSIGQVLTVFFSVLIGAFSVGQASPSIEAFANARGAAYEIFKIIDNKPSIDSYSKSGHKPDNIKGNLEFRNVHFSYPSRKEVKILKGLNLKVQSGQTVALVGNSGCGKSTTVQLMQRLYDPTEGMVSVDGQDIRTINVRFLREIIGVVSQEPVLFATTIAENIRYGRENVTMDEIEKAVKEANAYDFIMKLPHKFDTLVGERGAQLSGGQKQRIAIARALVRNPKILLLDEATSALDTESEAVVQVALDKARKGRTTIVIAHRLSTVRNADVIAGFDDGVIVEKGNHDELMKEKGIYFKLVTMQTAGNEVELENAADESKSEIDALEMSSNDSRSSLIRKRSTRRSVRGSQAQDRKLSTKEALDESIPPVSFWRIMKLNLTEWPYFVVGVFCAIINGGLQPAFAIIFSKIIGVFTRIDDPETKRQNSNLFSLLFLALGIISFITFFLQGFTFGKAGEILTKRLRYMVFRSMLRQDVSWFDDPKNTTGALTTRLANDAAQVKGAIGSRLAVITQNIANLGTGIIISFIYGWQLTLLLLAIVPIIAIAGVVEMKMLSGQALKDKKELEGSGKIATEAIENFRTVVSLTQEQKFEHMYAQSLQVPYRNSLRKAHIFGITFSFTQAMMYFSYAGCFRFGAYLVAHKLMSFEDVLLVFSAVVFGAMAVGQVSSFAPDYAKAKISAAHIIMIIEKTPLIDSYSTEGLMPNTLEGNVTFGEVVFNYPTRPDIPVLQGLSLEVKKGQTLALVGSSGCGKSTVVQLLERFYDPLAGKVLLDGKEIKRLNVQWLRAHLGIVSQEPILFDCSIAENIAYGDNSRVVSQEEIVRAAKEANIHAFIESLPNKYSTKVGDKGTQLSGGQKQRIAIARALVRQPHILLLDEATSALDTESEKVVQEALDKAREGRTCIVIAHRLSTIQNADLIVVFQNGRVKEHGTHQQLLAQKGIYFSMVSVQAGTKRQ
Description: The ATPase activities of Pgp were determined using Pgp-enriched membranes and a luminescent ATP detection kit (Pgp-Glo Assay Kit, Promega, USA) according to the manufacturer's instructions. Briefly, Pgp membranes (0.5 mg/mL) and Mg(II)-ATP (5 mM) were incubated in the absence or presence of sodium orthovanadate (100 μM) for 40 min/37° C. and ATP detected as a luciferase-generated luminescent signal. Basal Pgp-ATPase activities were determined as the difference between the ATP hydrolysis in the presence or absence of sodium orthovanadate. Verapamil-stimulated Pgp-ATPase activity was measured in the presence of the Pgp control substrate, verapamil (200 μM).
Test substrates (Dp44mT and Bp4eT) of interest were dissolved in dimethyl sulfoxide. The final concentration of DMSO in the assay medium was less than 1%.
The Pgp Glo™ ATPase assay (Promega, Madison, Wis.) was used to assess if Dp44mT and Bp4eT are substrates of Pgp. The ATPase assay measures the Pgp-mediated ATPase activity of Pgp by quantitating ATP consumption in the presence of the compounds of interest after incubation with purified membrane proteins containing high levels of Pgp. […] The basal ATPase activity of Pgp is compared to the ATPase activity stimulated or inhibited by the compounds of interest.

[3] = Redox studies: oxidation of H2DCF, cell-free
Description: These studies were conducted in an acetate buffer (150 mM; pH 5) containing cysteine (100 μM) to mimic lysosomal conditions. In these experiments, hydrogen peroxide (100 μM) was added to initiate ROS generation.

[4] = test system: Pgp-expressing KBV1 cells; experiment: Uptake of radio-labeled drug, KBV1 cells; type: cell-based, Human; conditions: for effect of Pgp inhibitors Val and Ela on uptake: KBV1 cells, Val 1 μM or Ela 0.1 μM pre-incubation, versus control
Description: Cells were then washed on ice three times with ice-cold PBS and collected for analysis. Drug uptake was calculated as the number of drug molecules/cell. […] For studies using lysosomotropic agents, cells were pre-incubated with NH4Cl (5 mM), CLQ (100 μM) or MA (100 μM) for 30 min/37° C. prior to ^14C-Dp44mT uptake. […] For efflux assays, the same labeling procedure was conducted as in the uptake assay. […] After this procedure, the overlying media was removed using a Pasteur pipette and then placed in a counting vial. The cells were removed from the plate in 1 mL of PBS and then dispensed into a separate counting vial.

[5] = test system: non-Pgp expressing KB31 cells; experiment: Uptake of radio-labeled drug, KB31 cells; type: cell-based, Human; conditions: Val 1 μM or Ela 0.1 μM pre-incubation, versus control
Description: For the uptake assay, each 35 mm culture dish containing 5×10^5 cells was incubated with ^14C-doxorubicin, ^3H-vinblastine or ^14C-Dp44mT (all at 1 μCi) for 30 min/37° C. Cells were then washed on ice three times with ice-cold PBS and collected for analysis. Drug uptake was calculated as the number of drug molecules/cell. […] For studies using lysosomotropic agents, cells were pre-incubated with NH4Cl (5 mM), CLQ (100 μM) or MA (100 μM) for 30 min/37° C. prior to ^14C-Dp44mT uptake. […] For efflux assays, the same labeling procedure was conducted as in the uptake assay. […] After this procedure, the overlying media was removed using a Pasteur pipette and then placed in a counting vial. The cells were removed from the plate in 1 mL of PBS and then dispensed into a separate counting vial. The radiolabeled-drug efflux was calculated as a percentage of the total drug uptake by the cells found at zero time.

[6] = test system: non-Pgp expressing KB31 cells; experiment: MTT proliferation assay, KB31 cells; type: cell-based, Human; conditions: for IC50: Homo sapiens, KB 3-1, 72 h incubation; for change of cytotoxicity in presence of Pgp inhibitors Val or Ela: Val 1 μM, Ela 0.1 μM, 72 h
[7] = test system: Pgp-expressing KBV1 cells; experiment: MTT proliferation assay, KBV1 cells; type: cell-based, Human; conditions: for IC50: Homo sapiens, KB-V1, 72 h incubation; for IC50 / change of cytotoxicity in presence of Pgp inhibitors Val or Ela: KBV1 cells; for change of cytotoxicity in presence of Pgp inhibitors Val or Ela: Val 1 μM, Ela 0.1 μM, 72 h; for increase in resistance of KBV1 cells compared to KB31 cells: ratio of IC50, 72 h
[8] = test system: non-Pgp expressing 2008 cells; experiment: MTT proliferation assay, 2008 cells; type: cell-based; conditions: for change of cytotoxicity in presence of Pgp inhibitors Val or Ela: 2008 cells, Val 1 μM, Ela 0.1 μM; for sensitivity of 2008 cells: compared to 2008/P200A cells
Description: (§2) The 2008 ovarian carcinoma cell line and the PAC-resistant 2008/P200A cell line (grown in 200 ng/mL of PAC) were kindly provided by Dr. John Allen (Centenary Institute, Sydney, Australia). Cells were grown in Dulbecco's modified Eagle's medium (DMEM; Life Technologies) with 10% (v/v) fetal calf serum (Sigma-Aldrich, St. Louis, Mo.) and supplemented with the following additions from Life Technologies: 1% (v/v) sodium pyruvate, 1% (v/v) non-essential amino acids, 100 U/mL penicillin, 100 μg/mL streptomycin, 2 mM L-glutamine and 0.28 μg/mL fungizone. The cells were then incubated at 37° C. in a humidified atmosphere of 5% CO2 and 95% air.
(§3) The effect of anti-cancer agents on cellular proliferation was examined using the MTT [3-(4,5-dimethylthiazol-2-yl)-2,5-diphenyl tetrazolium] method. In this assay, 3×10^3 cells/well were seeded in 96-well plates in 100 μL of media. The next day, serially diluted drugs of interest were added. […] The cells were incubated at 37° C. in a humidified atmosphere containing 5% CO2 and 95% air for 72 h. After this incubation, 10 μL of MIT (5 mg/mL) was added to each well and the incubation continued at 37° C. for 2 h. After solubilization of the cells with 100 μL of 10% SDS-50% isobutanol in 10 mM HCl, the plates were read at 570 nm using a scanning multi-well spectrophotometer (Victor™ Multilabel Counter plate reader; Perkin Elmer, Australia). Results were analyzed to calculate the concentration of chelator or complex necessary to reduce the absorbance to 50% (IC50) of the control.

[9] = test system: Pgp expressing 2008/P200A cells; experiment: MTT proliferation assay, 2008/P200A cells; type: cell-based; conditions: for change of cytotoxicity in presence of Pgp inhibitors Val or Ela: 2008/P200A cells, Val 1 μM, Ela 0.1 μM; for sensitivity of 2008/P200A cells compared to 2008 cells: 72 h
Description: as §2, §3

[10] = test system: KBV1 cells; experiment: MTT cytotoxicity after transient knockdown of Pgp (MDR1 siRNA) in KBV1 cells; type: cell-based, Human; conditions: Pgp siRNA vs. Scr siRNA, 72 h
Description: as §3
For all siRNA treatments against MDR1 (MDR1-siRNA; Cat #: 4123, Life Technologies), a siRNAlipofectamine mixture (50 nM MDR1 siRNA and 1/400 lipofectamine 2000) was added to the cells (at 30% confluency) and incubated for 72 h/37° C. prior to further experimentation. The effectiveness of Pgp knockdown was confirmed using western blot and also assessing DOX cytotoxicity via the MTT assay. As a control, scrambled siRNA (Scr siRNA; Life Technologies) was used at the same concentration as MDR1 siRNA.

[11] = biological target: T1, Pgp; parameters: purchased Promega; conditions: reported by others, biochemical assays; cited from earlier work
[12] = test system: Pgp-expressing cells; conditions: reported by others; cited from earlier work
[13] = test system: non-Pgp expressing KB31 cells; experiment: Rhodamine 123 accumulation assay, KB31 cells; type: cell-based, Human; conditions: increased concentrations
Description: Cells were then harvested and resuspended in ice-cold PBS and kept on ice until flow cytometric analysis (see below).
as §1

## [Cl][Fe]([Cl])[Cl] [FeCl3]
[1]
  lysosomal integrity (acridine orange): did not compromise lysosomal integrity
[2]
  Pgp-ATPase activity (in words): Neither FeCl3 nor CuCl2 significantly stimulated ATPase activity

## tetrathiolmolybdate [TM]
[3]; 5 μM, acetate buffer pH 5
  effect on redox activity / ROS generation of Cu[Dp44mT]: totally prevented

## CC[C@]1(O)C[C@@H]2CN(CCc3c([nH]c4ccccc34)[C@@](C(=O)OC)(c3cc4c(cc3OC)N(C)[C@H]3[C@@](O)(C(=O)OC)[C@H](OC(C)=O)[C@]5(CC)C=CCN6CC[C@]43[C@@H]65)C2)C1 [VBL, Vinblastine]
[4]
  effect of Pgp inhibitors Val and Ela on uptake: significantly (p<0.001) increased the uptake
[5]
  effect of Pgp inhibitors Val and Ela on uptake: did not significantly alter radiolabel uptake
[6]
  IC50: 0.13 ± 0.004 µM
  change of cytotoxicity in presence of Pgp inhibitors Val or Ela: no significant (p>0.05) change in cytotoxicity
[7]
  IC50: 29.7 ± 1.77 µM
  change of cytotoxicity in presence of Pgp inhibitors Val or Ela: markedly sensitized
  increase in resistance of KBV1 cells compared to KB31 cells: 221 fold
[8]
  change of cytotoxicity in presence of Pgp inhibitors Val or Ela: did not significantly (p>0.05) affect the cytotoxicity
  sensitivity of 2008 cells: extremely sensitive
[9]
  change of cytotoxicity in presence of Pgp inhibitors Val or Ela: abrogated the resistance
  sensitivity of 2008/P200A cells compared to 2008 cells: significantly higher resistance

## [Cl][Cu][Cl] [CuCl2, copper(II) chloride]
[3]; acetate buffer pH 5, cysteine, H2O2, over 12 min
  redox activity (H2DCF oxidation): no activity
[1]
  lysosomal integrity (acridine orange): did not compromise lysosomal integrity
[2]
  Pgp-ATPase activity (in words): Neither FeCl3 nor CuCl2 significantly stimulated ATPase activity

## CCNC(=S)NN=C(c1ccccc1)c1ccccn1 [Bp4eT, 2-benzoylpyridine-4-ethyl-3-thiosemicarbazone]
[7]
  more cytotoxic in drug-resistant KBV1 cells compared to KB31 cells: 6.7 fold
[2]; relative to basal activity
  Pgp-ATPase activity (in words): significant (p<0.001) stimulation of ATPase activity
[9]
  sensitivity of 2008/P200A cells compared to 2008 cells: significantly (p<0.001) increased sensitivity

## COc1cccc2c1C(=O)c1c(O)c3c(c(O)c1C2=O)C[C@@](O)(C(=O)CO)C[C@@H]3O[C@H]1C[C@H](N)[C@H](O)[C@H](C)O1 [DOX, Doxorubicin]
[10]
  decrease of IC50 by knockdown of Pgp: 15 fold
[4]
  effect of Pgp inhibitors Val and Ela on uptake: significantly (p<0.001) increased the uptake
[4]; control groups, 1 μCi
  cellular accumulation in KBV1 cells relative to KB31 cells: significantly (p<0.001) less
[5]
  effect of Pgp inhibitors Val and Ela on uptake: did not significantly alter radiolabel uptake
[6]
  IC50: 0.44 ± 0.003 µM
  change of cytotoxicity in presence of Pgp inhibitors Val or Ela: no significant (p>0.05) change in cytotoxicity
[7]
  IC50: 96.4 ± 10.1 µM
  change of cytotoxicity in presence of Pgp inhibitors Val or Ela: markedly sensitized
  increase in resistance of KBV1 cells compared to KB31 cells: 220 fold
[8]
  change of cytotoxicity in presence of Pgp inhibitors Val or Ela: did not significantly (p>0.05) affect the cytotoxicity
  sensitivity of 2008 cells: extremely sensitive
[9]
  change of cytotoxicity in presence of Pgp inhibitors Val or Ela: abrogated the resistance
  sensitivity of 2008/P200A cells compared to 2008 cells: significantly higher resistance

## C/C=C/C[C@@H](C)C(=O)[C@H]1C(=O)N[C@@H](C(C)C)C(=O)N(C)CC(=O)N(C)[C@@H](CC(C)C)C(=O)N[C@@H](C(C)C)C(=O)N(C)[C@@H](CC(C)C)C(=O)N[C@@H](C)C(=O)N[C@H](C)C(=O)N(C)[C@@H](CC(C)C)C(=O)N(C)[C@@H](CC(C)C)C(=O)N(C)[C@@H](C(C)C)C(=O)N1C [Val, Valspodar]
[2]; Pgp-enriched membranes, 40 min
  decrease of ATPase activity relative to the basal control: 5 fold

## COc1ccc(NC(=S)N=Nc2c(O)[nH]c3c(Cl)cc(Cl)cc23)cc1 [NSC73306]
[11]
  direct interaction with Pgp: no direct interaction
[12]
  cytotoxicity to Pgp-expressing cells compared to parent cells: increased cytotoxicity to Pgp-expressing cells

## COc1cc2c(cc1OC)CN(CCc1ccc(NC(=O)c3cccc4c(=O)c5cccc(OC)c5[nH]c34)cc1)CC2 [Ela, Elacridar]
[13]
  effect on Rh123 accumulation: no significant effect on Rh123 accumulation
